The test system of the experiment is MV-4-11 cells. As to the kind of experiment: Gene expression microarray analysis (Affymetrix PrimeView) and GSEA. The class given is cell-based, human. Also noted: RFU PODN (11730768_x_at) / Fold change /veh PODN (11730768_x_at) / RFU LINC00158 (11744669_a_at) / Fold change /veh LINC00158 (11744669_a_at) / RFU DUSP10 (11751237_a_at) / Fold change /veh DUSP10 (11751237_a_at) / RFU ID3 (11757404_x_at) / Fold change /veh ID3 (11757404_x_at) / RFU PLEKHG5 (11737974_s_at) / Fold change /veh PLEKHG5 (11737974_s_at) / RFU LRRC4B (11730491_at) / Fold change /veh LRRC4B (11730491_at) / RFU GIMAP4 (11747438_a_at) / Fold change /veh GIMAP4 (11747438_a_at) / RFU KRT8 (11758183_x_at) / Fold change /veh KRT8 (11758183_x_at) / RFU CNN1 (11734310_a_at) / Fold change /veh CNN1 (11734310_a_at) / RFU VPS37D (11726825_at) / Fold change /veh VPS37D (11726825_at) / RFU C10orf10 (11716522_x_at) / Fold change /veh C10orf10 (11716522_x_at) / RFU KIR2DL2 /// KIR2DL4 /// KIR2DL5A /// KIR2DL5B /// KIR2DS1 /// KIR2DS2 /// KIR2DS3 /// KIR2DS4 /// KIR3DL3 /// KIR3DL3 /// KIR3DS1 (11738374_at) / Fold change /veh KIR2DL2 /// KIR2DL4 /// KIR2DL5A /// KIR2DL5B /// KIR2DS1 /// KIR2DS2 /// KIR2DS3 /// KIR2DS4 /// KIR3DL3 /// KIR3DL3 /// KIR3DS1 (11738374_at) / RFU C1QL1 (11718748_at) / Fold change /veh C1QL1 (11718748_at) / RFU TMPRSS4 (11747572_a_at) / Fold change /veh TMPRSS4 (11747572_a_at) / RFU HAMP (11756126_x_at) / Fold change /veh HAMP (11756126_x_at) / RFU RNFT2 (11725882_a_at) / Fold change /veh RNFT2 (11725882_a_at) / RFU NR4A2 (11747474_a_at) / Fold change /veh NR4A2 (11747474_a_at) / RFU ABCC12 (11746883_a_at) / Fold change /veh ABCC12 (11746883_a_at) / RFU TMEM136 (11760407_x_at) / Fold change /veh TMEM136 (11760407_x_at) / RFU CLDN22 /// WWC2 (11732394_at) / Fold change /veh CLDN22 /// WWC2 (11732394_at) / RFU HLA-DPB1 (11760878_x_at) / Fold change /veh HLA-DPB1 (11760878_x_at) / RFU SPINT1 (11716480_a_at) / Fold change /veh SPINT1 (11716480_a_at) / RFU GAP43 (11754022_s_at) / Fold change /veh GAP43 (11754022_s_at) / RFU A4GNT (11735810_at) / Fold change /veh A4GNT (11735810_at) / RFU PRB3 (11715151_x_at) / Fold change /veh PRB3 (11715151_x_at) / RFU TUBB4B (11761932_at) / Fold change /veh TUBB4B (11761932_at) / RFU CAPN14 (11732068_a_at) / Fold change /veh CAPN14 (11732068_a_at) / RFU TMCC2 (11721928_a_at) / Fold change /veh TMCC2 (11721928_a_at) / RFU IRGQ (11745062_a_at) / Fold change /veh IRGQ (11745062_a_at) / RFU FAM174B (11720279_a_at) / Fold change /veh FAM174B (11720279_a_at) / RFU TMPRSS4 (11748680_a_at) / Fold change /veh TMPRSS4 (11748680_a_at) / RFU FAM212B (11763350_a_at) / Fold change /veh FAM212B (11763350_a_at) / RFU PLEKHG5 (11743358_a_at) / Fold change /veh PLEKHG5 (11743358_a_at) / RFU ZSCAN30 (11745921_a_at) / Fold change /veh ZSCAN30 (11745921_a_at) / RFU CMKLR1 (11741424_a_at) / Fold change /veh CMKLR1 (11741424_a_at) / RFU LOC101060620 /// MAPK8IP1 (11723275_at) / Fold change /veh LOC101060620 /// MAPK8IP1 (11723275_at) / RFU SPTSSB (11747773_x_at) / Fold change /veh SPTSSB (11747773_x_at) / RFU PRSS12 (11739890_at) / Fold change /veh PRSS12 (11739890_at) / RFU BIN1 (11741810_x_at) / Fold change /veh BIN1 (11741810_x_at) / RFU WNT11 (11732464_a_at) / Fold change /veh WNT11 (11732464_a_at) / RFU C10orf10 (11716521_a_at) / Fold change /veh C10orf10 (11716521_a_at) / RFU C5orf56 (11738089_at) / Fold change /veh C5orf56 (11738089_at) / RFU CYB561 (11721691_x_at) / Fold change /veh CYB561 (11721691_x_at) / RFU ANKRD19P (11752326_a_at) / Fold change /veh ANKRD19P (11752326_a_at) / RFU OR2T12 /// OR2T33 /// OR2T8 (11738714_s_at) / Fold change /veh OR2T12 /// OR2T33 /// OR2T8 (11738714_s_at) / RFU VCAN (11748164_a_at) / Fold change /veh VCAN (11748164_a_at) / RFU JSRP1 (11732532_at) / Fold change /veh JSRP1 (11732532_at) / RFU KRTAP10-11 (11738290_x_at) / Fold change /veh KRTAP10-11 (11738290_x_at) / RFU MYO3A (11730013_a_at) / Fold change /veh MYO3A (11730013_a_at) / RFU EBF3 (11725865_a_at) / Fold change /veh EBF3 (11725865_a_at) / RFU CAMK2N1 (11719241_x_at) / Fold change /veh CAMK2N1 (11719241_x_at) / RFU C5orf56 (11738088_a_at) / Fold change /veh C5orf56 (11738088_a_at) / RFU OLFML3 (11715873_a_at) / Fold change /veh OLFML3 (11715873_a_at) / RFU LOC100653217 /// NTM (11731650_a_at) / Fold change /veh LOC100653217 /// NTM (11731650_a_at) / RFU MAPK11 (11762145_a_at) / Fold change /veh MAPK11 (11762145_a_at) / RFU FIZ1 (11724087_x_at) / Fold change /veh FIZ1 (11724087_x_at) / RFU OASL (11726364_x_at) / Fold change /veh OASL (11726364_x_at) / RFU SOX15 (11748057_x_at) / Fold change /veh SOX15 (11748057_x_at) / RFU CD79A (11719716_a_at) / Fold change /veh CD79A (11719716_a_at) / RFU HIST1H1D (11736915_at) / Fold change /veh HIST1H1D (11736915_at) / RFU CASKIN2 (11723855_a_at) / Fold change /veh CASKIN2 (11723855_a_at) / RFU LOC730098 (11760151_x_at) / Fold change /veh LOC730098 (11760151_x_at) / RFU OR4N2 (11742367_at) / Fold change /veh OR4N2 (11742367_at) / RFU PRRT2 (11749266_a_at) / Fold change /veh PRRT2 (11749266_a_at) / RFU SNX32 (11753110_a_at) / Fold change /veh SNX32 (11753110_a_at) / RFU CDHR5 (11726645_a_at) / Fold change /veh CDHR5 (11726645_a_at) / RFU RCAN1 (11760418_a_at) / Fold change /veh RCAN1 (11760418_a_at) / RFU FAM167A (11723789_a_at) / Fold change /veh FAM167A (11723789_a_at) / RFU FAM26E (11764081_at) / Fold change /veh FAM26E (11764081_at) / RFU ISYNA1 (11749810_s_at) / Fold change /veh ISYNA1 (11749810_s_at) / RFU ACY1 (11761880_at) / Fold change /veh ACY1 (11761880_at) / RFU 11764098_at / Fold change /veh 11764098_at / RFU SAMD14 (11745864_x_at) / Fold change /veh SAMD14 (11745864_x_at) / RFU NPB (11741838_a_at) / Fold change /veh NPB (11741838_a_at) / RFU TMPRSS6 (11731388_a_at) / Fold change /veh TMPRSS6 (11731388_a_at) / RFU KRTAP10-2 (11738614_at) / Fold change /veh KRTAP10-2 (11738614_at) / RFU ARHGAP8 /// PRR5-ARHGAP8 (11727945_x_at) / Fold change /veh ARHGAP8 /// PRR5-ARHGAP8 (11727945_x_at) / RFU KRTAP5-7 /// NADSYN1 (11734609_at) / Fold change /veh KRTAP5-7 /// NADSYN1 (11734609_at) / RFU RASL12 (11751679_a_at) / Fold change /veh RASL12 (11751679_a_at) / RFU CDKN2B (11736163_a_at) / Fold change /veh CDKN2B (11736163_a_at) / RFU PRF1 (11729649_at) / Fold change /veh PRF1 (11729649_at) / RFU, ZNF638 /// ZNF638-IT1 / Fold change vs veh, ZNF638 /// ZNF638-IT1 / RFU, PANK3 / Fold change vs veh, PANK3 / RFU, SH3YL1 / Fold change vs veh, SH3YL1 / RFU, ZEB2 / Fold change vs veh, ZEB2 / RFU, NRIP1 / Fold change vs veh, NRIP1 / RFU, PTTG1IP / Fold change vs veh, PTTG1IP / RFU, CAPN2 / Fold change vs veh, CAPN2 / RFU, MED14 / Fold change vs veh, MED14 / RFU, SNORA58 / Fold change vs veh, SNORA58 / RFU, C1orf63 / Fold change vs veh, C1orf63 / RFU, LRRFIP1 / Fold change vs veh, LRRFIP1 / RFU, NDUFAF7 / Fold change vs veh, NDUFAF7 / RFU, SLC12A2 / Fold change vs veh, SLC12A2 / RFU, IBTK / Fold change vs veh, IBTK / RFU, ESF1 / Fold change vs veh, ESF1 / Fold change vs veh, TMEM50B / RFU, TAOK1 / Fold change vs veh, TAOK1 / RFU, ACBD3 / Fold change vs veh, ACBD3 / RFU, TMA16 / Fold change vs veh, TMA16 / RFU, RWDD3 / Fold change vs veh, RWDD3 / RFU, BCAT1 / Fold change vs veh, BCAT1 / RFU, EDEM3 / Fold change vs veh, EDEM3 / RFU, TMEM33 / Fold change vs veh, TMEM33 / RFU, WDR75 / Fold change vs veh, WDR75 / RFU, AHCTF1 / Fold change vs veh, AHCTF1 / RFU, TFRC / Fold change vs veh, TFRC / RFU, ZDHHC17 / Fold change vs veh, ZDHHC17 / RFU, NOM1 / Fold change vs veh, NOM1 / RFU, ARL8B / Fold change vs veh, ARL8B / RFU, ZBTB11 / Fold change vs veh, ZBTB11 / RFU, TAMM41 / Fold change vs veh, TAMM41 / RFU, KIAA1704 /// LOC100996395 / Fold change vs veh, KIAA1704 /// LOC100996395 / RFU, ING1 / Fold change vs veh, ING1 / RFU, TRMT61B / Fold change vs veh, TRMT61B / RFU, FUBP3 / Fold change vs veh, FUBP3 / RFU, TP53 / Fold change vs veh, TP53 / RFU, TNKS2 / Fold change vs veh, TNKS2 / RFU, ZFP14 / Fold change vs veh, ZFP14 / RFU, ACTR2 / Fold change vs veh, ACTR2 / RFU, PPP3R1 / Fold change vs veh, PPP3R1 / RFU, PIK3R1 / Fold change vs veh, PIK3R1 / RFU, HNRNPA1 / Fold change vs veh, HNRNPA1 / RFU, RNF170 / Fold change vs veh, RNF170 / RFU, ZNF28 / Fold change vs veh, ZNF28 / RFU, RNGTT / Fold change vs veh, RNGTT / RFU, OGT / Fold change vs veh, OGT / RFU, BRD1 / Fold change vs veh, BRD1 / RFU, MARS / Fold change vs veh, MARS / RFU, ZNF655 / Fold change vs veh, ZNF655 / RFU, FAHD1 / Fold change vs veh, FAHD1 / RFU, BDP1 / Fold change vs veh, BDP1 / RFU, LRRCC1 / Fold change vs veh, LRRCC1 / RFU, ARID1A / Fold change vs veh, ARID1A / RFU, ZNF146 / Fold change vs veh, ZNF146 / RFU, ZNF330 / Fold change vs veh, ZNF330 / RFU, GPN3 / Fold change vs veh, GPN3 / RFU, C9orf123 / Fold change vs veh, C9orf123 / RFU, N4BP2L2 / Fold change vs veh, N4BP2L2 / RFU, ARFIP1 / Fold change vs veh, ARFIP1 / RFU, FAM179B / Fold change vs veh, FAM179B / RFU, BCL10 / Fold change vs veh, BCL10 / RFU, UHRF1BP1L / Fold change vs veh, UHRF1BP1L / RFU, BET1 / Fold change vs veh, BET1 / RFU, CNOT2 / Fold change vs veh, CNOT2 / RFU, ZNF268 / Fold change vs veh, ZNF268 / Fold change vs veh, ZNF507 / RFU, DGCR2 / Fold change vs veh, DGCR2 / RFU, WDSUB1 / Fold change vs veh, WDSUB1 / Fold change vs veh, HSP90B1 /// MIR3652 / RFU, ADSS / Fold change vs veh, ADSS / RFU, GK / Fold change vs veh, GK / RFU, ZNF148 / Fold change vs veh, ZNF148 / RFU, TAF9 / Fold change vs veh, TAF9 / RFU, SLC1A5 / Fold change vs veh, SLC1A5 / RFU, SLMO2 / Fold change vs veh, SLMO2 / RFU, ABCC4 / Fold change vs veh, ABCC4 / RFU, LOC101060439 /// RAP1B / Fold change vs veh, LOC101060439 /// RAP1B / RFU, RFX7 / Fold change vs veh, RFX7 / RFU, GTPBP10 / Fold change vs veh, GTPBP10 / RFU, CNEP1R1 / Fold change vs veh, CNEP1R1 / RFU, BIVM-ERCC5 /// ERCC5 / Fold change vs veh, BIVM-ERCC5 /// ERCC5 / RFU, ILF3 / Fold change vs veh, ILF3 / RFU 11762660_at / Fold change /veh 11762660_at / RFU VCAN (11757783_s_at) / Fold change /veh VCAN (11757783_s_at) / RFU DDX43 (11728927_at) / Fold change /veh DDX43 (11728927_at) / RFU KRT8 (11758188_x_at) / Fold change /veh KRT8 (11758188_x_at) / RFU NKD1 (11759106_at) / Fold change /veh NKD1 (11759106_at) / RFU SRD5A1 (11742802_a_at) / Fold change /veh SRD5A1 (11742802_a_at) / RFU TPSAB1 /// TPSB2 (11721975_s_at) / Fold change /veh TPSAB1 /// TPSB2 (11721975_s_at) / RFU GSTM3 (11746129_a_at) / Fold change /veh GSTM3 (11746129_a_at) / RFU IL23R (11737362_x_at) / Fold change /veh IL23R (11737362_x_at) / RFU TMEM51 (11727254_a_at) / Fold change /veh TMEM51 (11727254_a_at) / RFU PIWIL2 (11732686_x_at) / Fold change /veh PIWIL2 (11732686_x_at) / RFU ORM1 (11744905_x_at) / Fold change /veh ORM1 (11744905_x_at) / RFU CCDC152 (11743942_at) / Fold change /veh CCDC152 (11743942_at) / RFU ECM1 (11717891_a_at) / Fold change /veh ECM1 (11717891_a_at) / RFU IL23R (11748794_a_at) / Fold change /veh IL23R (11748794_a_at) / RFU TNFAIP8L3 (11732012_x_at) / Fold change /veh TNFAIP8L3 (11732012_x_at) / RFU MBOAT4 (11741988_at) / Fold change /veh MBOAT4 (11741988_at) / RFU 11764193_at / Fold change /veh 11764193_at / RFU TMEM53 (11763286_at) / Fold change /veh TMEM53 (11763286_at) / RFU MAGEB2 (11727129_at) / Fold change /veh MAGEB2 (11727129_at) / RFU TMEM200A (11744735_a_at) / Fold change /veh TMEM200A (11744735_a_at) / RFU CCDC152 (11751479_a_at) / Fold change /veh CCDC152 (11751479_a_at) / RFU FAM211A (11726209_a_at) / Fold change /veh FAM211A (11726209_a_at) / RFU RGS16 (11746705_a_at) / Fold change /veh RGS16 (11746705_a_at) / RFU VCAN (11755009_s_at) / Fold change /veh VCAN (11755009_s_at) / RFU RHOB (11743442_s_at) / Fold change /veh RHOB (11743442_s_at) / RFU RGS16 (11720943_a_at) / Fold change /veh RGS16 (11720943_a_at) / RFU RGS16 (11720944_at) / Fold change /veh RGS16 (11720944_at) / RFU, VPS4B / Fold change vs veh, VPS4B / RFU, CREB1 / Fold change vs veh, CREB1 / RFU, DNAJC13 / Fold change vs veh, DNAJC13 / RFU, GNAQ / Fold change vs veh, GNAQ / RFU, CDK5R1 / Fold change vs veh, CDK5R1 / RFU, ZRANB3 / Fold change vs veh, ZRANB3 / RFU, CUL4A / Fold change vs veh, CUL4A / RFU, CCNY / Fold change vs veh, CCNY / RFU, UFL1 / Fold change vs veh, UFL1 / RFU, COG3 / Fold change vs veh, COG3 / RFU, DIAPH2 / Fold change vs veh, DIAPH2 / RFU, SKA2 / Fold change vs veh, SKA2 / RFU, AFF3 / Fold change vs veh, AFF3 / RFU, LMF1 / Fold change vs veh, LMF1 / RFU, IPO11 / Fold change vs veh, IPO11 / RFU, DFFB / Fold change vs veh, DFFB / RFU, FOXP1 / Fold change vs veh, FOXP1 / RFU, CARD8 / Fold change vs veh, CARD8 / RFU, STRN3 / Fold change vs veh, STRN3 / RFU, ADK / Fold change vs veh, ADK / RFU, RASSF2 / Fold change vs veh, RASSF2 / RFU, WIPF1 / Fold change vs veh, WIPF1 / RFU, LARP1B / Fold change vs veh, LARP1B / RFU, RASA1 / Fold change vs veh, RASA1 / RFU, RB1 / Fold change vs veh, RB1 / RFU, PPFIA1 / Fold change vs veh, PPFIA1 / RFU, MAT2A / Fold change vs veh, MAT2A / RFU, CCT5 / Fold change vs veh, CCT5 / RFU, WDR92 / Fold change vs veh, WDR92 / RFU, CUX1 / Fold change vs veh, CUX1 / RFU, TTC7A / Fold change vs veh, TTC7A / RFU, TMEM135 / Fold change vs veh, TMEM135 / RFU, DEPTOR / Fold change vs veh, DEPTOR / RFU, CPM / Fold change vs veh, CPM / RFU, DNAJB6 / Fold change vs veh, DNAJB6 / RFU, CACNA2D3 / Fold change vs veh, CACNA2D3 / RFU, DTX4 / Fold change vs veh, DTX4 / RFU, TFCP2 / Fold change vs veh, TFCP2 / RFU, GMCL1 /// GMCL1P1 / Fold change vs veh, GMCL1 /// GMCL1P1 / RFU, AEBP2 / Fold change vs veh, AEBP2 / RFU, SNHG1 /// SNORD22 /// SNORD25 /// SNORD26 /// SNORD27 /// SNORD28 /// SNORD29 /// SNORD31 / Fold change vs veh, SNHG1 /// SNORD22 /// SNORD25 /// SNORD26 /// SNORD27 /// SNORD28 /// SNORD29 /// SNORD31 / Fold change (Aza/veh), C12orf56 (ProbeSet 11735607_a_at) / Fold change (ACY-1035/veh), C12orf56 (ProbeSet 11735607_a_at) / Fold change (Aza/veh), FGFR1OP (ProbeSet 11751329_s_at) / Fold change (ACY-1035/veh), FGFR1OP (ProbeSet 11751329_s_at) / Fold change (Aza/veh), VPS36 (ProbeSet 11739960_a_at) / Fold change (ACY-1035/veh), VPS36 (ProbeSet 11739960_a_at) / RFU SYPL1 (11715823_x_at) / Fold change /veh SYPL1 (11715823_x_at) / RFU IGFBP7 (11715501_s_at) / Fold change /veh IGFBP7 (11715501_s_at) / RFU REEP3 (11722064_at) / Fold change /veh REEP3 (11722064_at) / RFU IGLL1 (11728026_x_at) / Fold change /veh IGLL1 (11728026_x_at): dose or concentration left out as unconfirmed. Conditions: ProbeSet 11718569_a_at; LIST D.

One molecule from PMC5218480 (PLoS ONE, 2017) can be followed below.

For the molecule `Nc1ccc(-c2cccs2)cc1NC(=O)c1ccc2c(c1)cc(C1CC1)n2CCN1CCOCC1` [ACY-1035], the “Fold change vs veh, WIPF1” value was determined as 0.95.
